Assay results from patent US12227501B2, “3-amino-2-[2-(acylamino)pyridin-4-yl]-1,5,6,7-tetrahydro-4h-pyrrolo[3,2-c]pyridin-4-one as CSNK1 inhibitors” (Bayer Aktiengesellschaft, priority 2019, dated 2025).
Structures can show the parent of a compound that is named as a salt.

Target: wild-type Epidermal Growth Factor Receptor (EGFR) (Homo sapiens (Human), UniProt P00533)
Assay: WT-EGFR Kinase Assay (TR-FRET, 2 mM ATP)
Assay type: biochemical
Details: EGFR Wildtyp- 2 mM ATP IC50 [mol/l] (median)

wild-type Epidermal Growth Factor Receptor (EGFR), sequence (P00533 669-1210): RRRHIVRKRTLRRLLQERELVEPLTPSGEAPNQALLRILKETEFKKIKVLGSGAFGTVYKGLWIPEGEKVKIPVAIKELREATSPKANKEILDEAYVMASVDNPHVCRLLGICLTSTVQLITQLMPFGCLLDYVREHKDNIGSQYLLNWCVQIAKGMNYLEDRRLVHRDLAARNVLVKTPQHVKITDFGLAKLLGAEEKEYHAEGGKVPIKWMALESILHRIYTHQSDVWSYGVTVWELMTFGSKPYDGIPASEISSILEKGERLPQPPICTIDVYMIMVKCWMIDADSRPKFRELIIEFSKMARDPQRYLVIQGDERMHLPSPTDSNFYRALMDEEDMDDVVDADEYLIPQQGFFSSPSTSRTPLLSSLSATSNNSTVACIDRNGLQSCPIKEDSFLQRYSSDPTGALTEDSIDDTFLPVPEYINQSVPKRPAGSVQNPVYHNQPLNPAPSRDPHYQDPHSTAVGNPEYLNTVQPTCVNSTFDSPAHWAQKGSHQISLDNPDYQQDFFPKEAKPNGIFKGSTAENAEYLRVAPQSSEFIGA

Q: Which IC50 does the source give for `Cc1ccccc1Nc1c(-c2ccnc(NC(=O)Cc3ccc(F)cc3)c2)[nH]c2c1C(=O)NC(C)(C)C2` [Example 113, N-{4-[6,6-dimethyl-3-(2-methylanilino)-4-oxo-4,5,6,7-tetrahydro-1H-pyrrolo[3,2-c]pyridin-2-yl]pyridin-2-yl}-2-(4-fluorophenyl)acetamide] here?
A: The IC50 was greater than 5.71 µM.

Q: How did the IC50 turn out when `CC1(C)Cc2[nH]c(-c3ccnc(NC(=O)Cc4ccc(F)cc4)c3)c(Nc3cccc(F)n3)c2C(=O)N1` [Example 127, 2-(4-fluorophenyl)-N-(4-{3-[(6-fluoropyridin-2-yl)amino]-6,6-dimethyl-4-oxo-4,5,6,7-tetrahydro-1H-pyrrolo[3,2-c]pyridin-2-yl}pyridin-2-yl)acetamide-1,1′,1″-phosphoryltripyrrolidine salt] was run?
A: Its IC50 is 16.9 µM.
